{"source": "patent US11939312B2", "about": "“Enantiomeric entactogen compositions and their use” (Arcadia Medicine, Inc., priority 2021, dated 2024)", "key": {"[1]": {"details": "doses of 100-125 mg; cited from earlier work"}, "[2]": {"details": "rat, p.o., cited from earlier work"}, "[3]": {"details": "cited from earlier work"}, "[4]": {"details": "cited from earlier work", "remark": "listed apart in the source"}, "[5]": {"assay": "Calculated human equivalent dose (HED) of the NOAEL", "details": "for Human Equivalent Dose (HED): NOAEL (human), total dose / Human Equivalent Dose (HED): neurotoxicology NOAEL (human), total dose: assuming a 60 kg human; for NOAEL: human"}, "[6]": {"details": "p.o. in rat (single housing for SR(±)MDMA); cited from earlier work"}, "[7]": {"details": "dog, female and male, p.o.; cited from earlier work"}, "[8]": {"details": "repeated administration, 50 mg/kg bw, mice (Curry 2018); cited from earlier work"}, "[9]": {"assay": "Subjective report of R-MDMA HCL (Example 11)", "details": "oral 250 (±) 10 mg", "method": "Purpose: To determine the physiological and subjective effects of the hydrochloride salt of R-MDMA (oral administration, 250 (±) 10 mg), supplemented with acetyl-L-carnitine (ALCAR), alpha lipoic acid (ALA), ascorbate to reduce or prevent neurotoxicity."}, "[10]": {"assay": "Maximum recommended starting dose (MRSD)", "details": "expected value"}, "[11]": {"details": "rodent models, doses far above allometrically-scaled clinical doses (Curry 2018); cited from earlier work"}, "[12]": {"details": "brain imaging studies, 100 mg, healthy volunteers"}}, "note": "Read-outs that look alike come from different tables or passages of the source."}
{"smiles": "CNC(C)Cc1ccc2c(c1)OCO2", "note": "(racemic) [racemic MDMA, 3,4-methylenedioxymethamphetamine]", "values": [{"measurement": "increase in blood pressure (diastolic)", "setting": "[1]", "value": "14.4-25 mmg"}, {"measurement": "increase in heart rate", "setting": "[1]", "value": "26-30 bpm"}, {"measurement": "Neurotoxicology NOAEL", "setting": "[2]; female", "value": 25, "unit": "mg/kg/week p.o1"}, {"measurement": "Neurotoxicology NOAEL", "setting": "[2]; male", "value": 20, "unit": "mg/kg/week p.o1."}, {"measurement": "onset of subjective effects", "setting": "[3]; Harris 2002", "value": "approximately 45 mins"}, {"measurement": "time of peak subjective effects", "setting": "[3]; Harris 2002", "value": "1.5 to 2", "unit": "h"}, {"measurement": "time to decrease to baseline values", "setting": "[3]; Harris 2002", "value": "5 to 6", "unit": "h"}, {"measurement": "duration of subjective effects", "setting": "[3]; [12]", "value": "approximately 4.5 hours"}, {"measurement": "time of peak subjective effects", "setting": "[3]; [12]", "value": 1.67, "unit": "h"}, {"measurement": "duration of effects", "setting": "[3]; one dose", "value": "4 to 5", "unit": "h"}, {"measurement": "time of peak drug effects", "setting": "[3]; patients with PTSD (Mithoefer 2013)", "value": "2 to 5", "unit": "h"}, {"measurement": "onset of action", "setting": "[3]; patients with PTSD, after the initial dose (Mithoefer 2013)", "value": "45 to 75", "unit": "min"}, {"measurement": "duration of effects", "setting": "[3]; with the booster dose", "value": "5 to 6", "unit": "h"}, {"measurement": "time to peak plasma concentration", "setting": "[4]; doses 100-125 mg, humans", "value": "2 to 3", "unit": "h"}, {"measurement": "elimination half-life", "setting": "[4]; similar for doses 50-125 mg", "value": "7 to 9", "unit": "h"}, {"measurement": "Human Equivalent Dose (HED): NOAEL (human), total dose", "setting": "[5]", "value": 2080, "unit": "mg"}, {"measurement": "Human Equivalent Dose (HED): neurotoxicology NOAEL (human), total dose", "setting": "[5]", "value": 342.9, "unit": "mg*"}, {"measurement": "Human Equivalent Dose (HED): NOAEL (human)", "setting": "[5]; calculated from NOAEL", "value": 34, "unit": "mg/kg →"}, {"measurement": "Human Equivalent Dose (HED): neurotoxicology NOAEL (human)", "setting": "[5]; calculated from neurotoxicology NOAEL", "value": "NOAEL (human): 6 mg/kg"}, {"measurement": "No adverse effect level (NOAEL)", "setting": "[6]", "value": "NOAEL: 100 mg/kg"}, {"measurement": "Neurotoxicology NOAEL", "setting": "[7]", "value": 4, "unit": "mg/kg/week p.o"}]}
{"smiles": "CN[C@H](C)Cc1ccc2c(c1)OCO2", "note": "[R-MDMA, (R)-1-(1,3-Benzodioxol-5-yl)-N-methyl-propan-2-amine]", "values": [{"measurement": "evidence of neurotoxicity", "setting": "[8]", "value": "did not show evidence of neurotoxicity"}, {"measurement": "hyperthermia or hypothermia", "setting": "[9]", "value": "No noticeable hyperthermia or hypothermia"}, {"measurement": "jaw clenching", "setting": "[9]", "value": "No incidence of jaw clenching"}, {"measurement": "onset of noticeable effects", "setting": "[9]; Subject A", "value": "around 40 minutes"}, {"measurement": "time of peak of the experience", "setting": "[9]; Subject A", "value": "around two hours after ingestion"}, {"measurement": "blood pressure", "setting": "[9]; monitor of low precision, result inconclusive", "value": "increased for a short period"}, {"measurement": "heart rate", "setting": "[9]; short period, from 85 resting", "value": "115-125"}, {"measurement": "Expected MSRD", "setting": "[10]", "value": ">300 mg:"}, {"measurement": "temperature fluctuations", "setting": "[11]", "value": "no significant temperature fluctuations"}, {"measurement": "AUC in comparison to S-MDMA", "setting": "[4]; Fallon 1999, Fitzgerald 1990", "value": "increased AUC"}, {"measurement": "half-life in comparison to S-MDMA", "setting": "[4]; Fallon 1999, Fitzgerald 1990", "value": "longer half-life"}, {"measurement": "Human Equivalent Dose (HED): NOAEL (human), total dose", "setting": "[5]", "value": ">4100", "unit": "mg"}, {"measurement": "Human Equivalent Dose (HED): neurotoxicology NOAEL (human), total dose", "setting": "[5]", "value": 450, "unit": "mg*"}, {"measurement": "NOAEL", "setting": "[5]", "value": 7.4, "unit": "mg/kg"}, {"measurement": "No adverse effect level (NOAEL)", "setting": "[6]", "value": "NOAEL: >200 mg/kg"}]}
{"smiles": "CN[C@@H](C)Cc1ccc2c(c1)OCO2", "note": "[S(+)MDMA, (S)-1-(1,3-Benzodioxol-5-yl)-N-methylpropan-2-amine]", "values": [{"measurement": "Expected MSRD", "setting": "[10]", "value": 150, "unit": "mg"}, {"measurement": "Human Equivalent Dose (HED): NOAEL (human), total dose", "setting": "[5]", "value": "<2080", "unit": "mg"}, {"measurement": "Human Equivalent Dose (HED): neurotoxicology NOAEL (human), total dose", "setting": "[5]", "value": 342.9, "unit": "mg*"}, {"measurement": "NOAEL", "setting": "[5]", "value": 6, "unit": "mg/kg"}]}
